Laboratory results reported in patent publication US20080176952A1, “Management of Ophthalmologic Disorders, Including Macular Degeneration” (priority 2004, published 2008).
Read-outs that look alike come from different tables or passages of the source. Blank lines part the entries; values can stand above or below the molecule they belong to.

Columns and labels:
RPE65 = biological target: T1, RPE65 (Bos taurus, UniProt Q28175); assay: Competitive binding with 3H-all-trans-retinyl palmitate to RPE65 (buffer exchange); parameters: species or system bovine; settings: 6 μM retinoic acid, 0.5 μM RPE65, 0.65 μM 3H-all-trans-retinyl palmitate
T1 construct: Frozen bovine eyecups devoid of retinas were purchased from W. L. Lawson Co; tissue W. L. Lawson Co; host or cells: bovine eyecups (retinal pigment epithelium)
T1 sequence (Q28175 whole entry): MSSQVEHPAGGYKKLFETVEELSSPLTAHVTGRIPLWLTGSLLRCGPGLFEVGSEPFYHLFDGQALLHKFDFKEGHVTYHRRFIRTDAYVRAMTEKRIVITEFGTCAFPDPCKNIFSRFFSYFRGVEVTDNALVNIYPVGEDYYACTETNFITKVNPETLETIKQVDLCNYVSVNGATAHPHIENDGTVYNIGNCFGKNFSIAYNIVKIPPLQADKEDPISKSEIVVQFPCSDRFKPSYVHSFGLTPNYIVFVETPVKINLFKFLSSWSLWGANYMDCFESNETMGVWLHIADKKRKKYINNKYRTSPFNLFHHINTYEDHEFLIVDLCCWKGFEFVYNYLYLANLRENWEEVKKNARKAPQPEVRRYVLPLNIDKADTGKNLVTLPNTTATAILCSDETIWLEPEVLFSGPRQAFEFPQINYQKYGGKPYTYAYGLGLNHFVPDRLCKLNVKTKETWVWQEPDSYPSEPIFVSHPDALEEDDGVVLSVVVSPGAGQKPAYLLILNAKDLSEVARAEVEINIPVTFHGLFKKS
Method: Competitive binding of retinoic acid (all-trans and 13-cis) and all-trans-retinyl palmitate to RPE65: Buffer exchange experiments were performed to investigate the abilities of the retinoic acids (all-trans and 13-cis) to displace all-trans-retinyl palmitate binding from RPE65. To RPE65 (0.5 μM) (PBS, 1% CHAPS, pH 7.4), was added 6 μM of retinoic acid (all-trans and 13-cis) and incubated at 4° C. for 30 min. A control sample of RPE65 was incubated minus retinoic acids at 4° C. for 30 min. At the end of this incubation, the samples were incubated for 30 min with ^3H-all-trans-retinyl palmitate (0.65 ∥M, 20.31. Ci/mmol). At the end of this incubation period the buffer (PBS-1% CHAPS) was exchanged 10^4 fold with a Centricon 30K MWCO filter. The sample retained and the buffer flow through were counted on a liquid scintillation counter, to measure the amount of ^3H-all-trans-retinyl palmitate retained.
Competitive binding of retinoic acid (all-trans and 13-cis) and all-trans-retinyl palmitate to RPE65: Buffer exchange experiments were performed to investigate the abilities of the retinoic acids (all-trans and 13-cis) to displace all-trans-retinyl palmitate binding from RPE65. […] The sample retained and the buffer flow through were counted on a liquid scintillation counter, to measure the amount of ^3H-all-trans-retinyl palmitate retained. […]

[1] = test system: 11-cis-retinol biosynthesis (IMH activity) in retinal pigment epithelial membrane system; assay: Effect on 11-cis-retinol biosynthesis (IMH activity) in RPE membranes; assay type: biochemical, bovine; settings: membranes pre-incubated with vitamin A before inhibitor; 60 μM; data not shown
Method: A control reaction mixture without any inhibitor was also incubated at room temperature for 15 min. At the end of the min incubation, all-trans-retinol [11-12-^3H2] (0.2 μM) was added to the reaction mixtures (100 mM Tris pH 8.0, […] of RPE protein, 0.2% BSA 100 μM of DPPC, 1 mM of DTT and 0.2 μM all-trans-retinol [11-12-^3H2]) and incubated at room temperature for 30 min. At the end of this 30 minutes of incubation, an aliquot of the reactions were quenched to verify the equal addition of all-trans-retinol [11,12-^3H2] and the effect of these inhibitors on LRAT. After this the control reaction mixture was incubated with atRA (60 & 6 μM), 13cRA (60 & 6 μM) or 4-HPR (60 & 6 μM) for 15 min. Now all the reaction mixtures were incubated with 30 μM of apo-rCRALBP (100 mM Tris pH 8.0, 7.7 μg of RPE protein, 0.2% BSA 100 μM of DPPC, 1 mM of DTT 30 μM apo-rCRALBP and 0.2 μM all-trans-retinol [11-12-^3H2]) at 37° C. for 30 minutes. At the end of this incubation period the 200 μL reaction mixture was quenched by the addition of 750 μL ice cold methanol after which 100 μL of 1M sodium chloride solution was added, and 500 μl hexane (containing butylated hydroxy toluene at 1 mg/mL) was added to effect extraction of the retinoids. The retinoids were analyzed as previously described (27). The amount of 11-cis-retinol formed was used as a measurement of IMH activity. All experiments were performed in triplicate and the average values of these measurements were used for analysis.
A control reaction mixture without any inhibitor was also incubated at room temperature for 15 min. At the end of the min incubation, all-trans-retinol [11-12-^3H2] (0.2 μM) was added to the reaction mixtures (100 mM Tris pH 8.0, 76.7 μg of RPE protein, 0.2% BSA 100 μM of DPPC, 1 mM of DTT and 0.2 μM all-trans-retinol [11-12-^3H2]) and incubated at room temperature for 30 min. […] The retinoids were analyzed as previously described (27). […]

tLRAT [2] = biological target: T2, tLRAT (Homo sapiens, UniProt O95237); settings: comparison value; no observable turnover under the same conditions; read-out: KM as acyl donor in the LRAT reaction; cited from earlier work
T2 construct: This form of LRAT has the two N and C-terminal transmembrane domains of LRAT truncated; made in house
T2 sequence (O95237 31-196 limits assumed): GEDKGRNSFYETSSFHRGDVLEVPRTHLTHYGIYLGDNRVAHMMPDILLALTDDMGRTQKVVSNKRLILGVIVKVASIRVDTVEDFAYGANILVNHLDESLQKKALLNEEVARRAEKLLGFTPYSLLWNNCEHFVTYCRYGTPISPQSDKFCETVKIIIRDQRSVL

tLRAT [3] = biological target: T2, tLRAT; assay: mRPE65 concentration-dependent esterification of vitamin A by tLRAT; assay type: biochemical
Method: mRPE65 concentration-dependent esterification of vitamin A: The effect of mRPE65 concentration on the rates of all-trans-retinyl palmitate formation was determined by monitoring the tLRAT catalyzed formation of all-trans-retinyl palmitate from added [11,12-^3H2]-all-trans-retinol and mRPE65. It should be noted that all-trans-retinyl palmitate formed from mRPE65 and vitamin A was identified both by its mass spectroscopic and chromatographic properties. The reaction mixture (volume 0.1 mL) contains 100 mM Tris (pH 8.4), 5 μM of tLRAT 0.3% CHAPS, 1 mM dithiothreitol and 5 μM of all-trans-retinol [11,12-^3H2] and mRPE65 (0, 0.008, 0.02, 0.028, 0.04, 0.052, 0.06 and 0.08 μM) incubated for 10 min at room temperature. After 10 min the reaction was quenched with 500 μL methanol, 100 μL of water and 500 μL of hexane. The amount of all-trans-retinyl palmitate [11,12-^3H2] formed as determined by normal phase-HPLC and was used as a measure of activity. The kinetic parameters KM (Kapp) and N were calculated as described before (Segal 1993). Each experiment was done in triplicate, and the data points used are an average of these three points. […]
In these experiments, pure mRPE65 and vitamin A are incubated with LRAT and the resultant all-trans-retinyl palmitate is isolated by HPLC. […] Under the same conditions, no observable turnover of DPPC is measured (FIG. 11B).

competition with 3H-all-trans-retinyl palmitate binding to RPE65 (RPE65): competes with the binding
Molecule: CC1=C(/C=C/C(C)=C/C=C/C(C)=C/C(=O)O)C(C)(C)CCC1 [all-trans-retinoic acid]
inhibition of 11-cis-retinol formation [1]: not susceptible to inhibition

Molecule: CCCCCCCCCCCCCCCC(=O)OC[C@H](COP(=O)([O-])OCC[N+](C)(C)C)OC(=O)CCCCCCCCCCCCCCC [DPPC, dipalamitoyl phosphatidylcholine]
Km (tLRAT [2]): 1.4 µM

N (Hill plot) (tLRAT [3]; tLRAT catalyzed palmitoyl transfer to vitamin A): 2.54
B1: mRPE65: membrane-associated, palmitoylated form of RPE65; acts as palmitoyl donor for LRAT (protein, UniProt Q16518 2-533, looked up)
Retinoid isomerohydrolase: SIQVEHPAGGYKKLFETVEELSSPLTAHVTGRIPLWLTGSLLRCGPGLFEVGSEPFYHLFDGQALLHKFDFKEGHVTYHRRFIRTDAYVRAMTEKRIVITEFGTCAFPDPCKNIFSRFFSYFRGVEVTDNALVNVYPVGEDYYACTETNFITKINPETLETIKQVDLCNYVSVNGATAHPHIENDGTVYNIGNCFGKNFSIAYNIVKIPPLQADKEDPISKSEIVVQFPCSDRFKPSYVHSFGLTPNYIVFVETPVKINLFKFLSSWSLWGANYMDCFESNETMGVWLHIADKKRKKYLNNKYRTSPFNLFHHINTYEDNGFLIVDLCCWKGFEFVYNYLYLANLRENWEEVKKNARKAPQPEVRRYVLPLNIDKADTGKNLVTLPNTTATAILCSDETIWLEPEVLFSGPRQAFEFPQINYQKYCGKPYTYAYGLGLNHFVPDRLCKLNVKTKETWVWQEPDSYPSEPIFVSHPDALEEDDGVVLSVVVSPGAGQKPAYLLILNAKDLSEVARAEVEINIPVTFHGLFKKS
modifications: palmitoylated membrane-associated form
notes: membrane-associated, palmitoylated form of RPE65; acts as palmitoyl donor for LRAT
Km (tLRAT [3]; 5 μM tLRAT, 5 μM all-trans-retinol, sigmoidal kinetics, read-out: KM (Kapp) as palmitoyl donor): 0.03 µM
